The assay is described as follows: Inhibition of PDGF-induced proliferation in RAOSMC. More on the design: species or system Rattus norvegicus.

`O=C1C(Cl)=C(Nc2ccccc2)C(=O)c2[nH]cnc21`: half-maximal inhibition (IC50) required 5.5 µM and the negative-log IC50 (pIC50) is listed as 5.26.
`O=C1C(Cl)=C(Nc2cccc(Br)c2)C(=O)c2[nH]cnc21` had an IC50 of 1.6 µM.
On to `O=C1C(Br)=C(Nc2ccc(F)cc2)C(=O)c2[nH]cnc21`, for which 1 µM corresponded to half-maximal inhibition (IC50) and the negative logarithm of the IC50 (pIC50) was 6.
In the case of `O=C1C(Br)=C(Nc2cccc(I)c2)C(=O)c2[nH]cnc21`, the IC50 is 2.5 µM.
Still for that read-out and setting: as for `Cc1nc2c([nH]1)C(=O)/C(=N/c1ccc(F)c(F)c1F)C(Cl)=C2O`, the figure is 0.8 µM; as for `Cc1nc2c([nH]1)C(=O)/C(=N/c1ccccc1)C(Cl)=C2O`, 0.8 µM.
Same read-out and setting: as for `Cc1ccc(NC2=C(Br)C(=O)c3nc[nH]c3C2=O)cc1`, the figure is 1 µM; as for `Cc1nc2c([nH]1)C(=O)/C(=N/c1cccc(Br)c1)C(Cl)=C2O`, 1 µM; as for `Cc1nc2c([nH]1)C(=O)/C(=N/c1ccc(F)cc1)C(Cl)=C2O`, 3 µM.
Still for that read-out and setting: as for `O=C1C(Cl)=C(Nc2ccccc2)C(=O)c2[nH]c(C(F)(F)F)nc21`, the figure is 50 µM; as for `Cc1nc2c([nH]1)C(=O)/C(=N/c1cccc(Cl)c1)C(Cl)=C2O`, 0.9 µM.
The compound `O=C1C(Cl)=C(Nc2cccc(Cl)c2)C(=O)c2[nH]cnc21` gave a 50% inhibitory concentration (IC50) of 1.4 µM.
The same measure, in the same setting: under `O=C1C(Cl)=C(Nc2cccc(I)c2)C(=O)c2[nH]cnc21` stands 1.3 µM; under `O=C1C(Br)=C(Nc2ccc(Cl)cc2)C(=O)c2[nH]cnc21`, 4 µM.
On the same count and under the same terms, as for `O=C1C(Br)=C(Nc2ccccc2)C(=O)c2[nH]cnc21`, the figure is 1.1 µM.
With `O=C1C(Cl)=C(Nc2ccc(I)cc2)C(=O)c2[nH]c(C(F)(F)F)nc21`, the midpoint of inhibition, the IC50, lay at 25 µM.
`O=C1C(Cl)=C(Nc2ccc(Cl)cc2)C(=O)c2[nH]c(C(F)(F)F)nc21` returned an IC50 of 15 µM and a negative-log IC50 (pIC50) of 4.82.
Regarding `Cc1ccc(NC2=C(Cl)C(=O)c3nc(C(F)(F)F)[nH]c3C2=O)cc1`, the midpoint of inhibition, the IC50, lay at 40 µM.
Take `O=C1C(Cl)=C(Nc2ccc(I)cc2)C(=O)c2[nH]cnc21`: the IC50 is 1.3 µM and the pIC50 worked out at 5.89.
In turn, `O=C1C(Cl)=C(Nc2ccc(F)cc2)C(=O)c2[nH]c(C(F)(F)F)nc21` had a concentration for half-maximal inhibition (IC50) of 12 µM.
On the same count and under the same terms, as for `Cc1nc2c([nH]1)C(=O)/C(=N/c1ccc(I)cc1)C(Cl)=C2O`, the figure is 1 µM; as for `O=C1C(Cl)=C(Nc2ccc(F)cc2)C(=O)c2[nH]cnc21`, 1.2 µM; as for `O=C1C(Cl)=C(Nc2ccc(OC(F)(F)F)cc2)C(=O)c2[nH]c(-c3ccccn3)nc21`, 6 µM.
The same measure, in the same setting: as for `O=C1C(Cl)=C(Nc2ccc(F)cc2)C(=O)c2[nH]c(-c3ccncc3)nc21`, the figure is 50 µM.
Same read-out and setting: under `O=C1C=C(Nc2ccc(Br)cc2)C(=O)c2[nH]c(-c3ccccn3)nc21` stands 12 µM; under `O=C1C=C(Nc2ccc(Cl)cc2)C(=O)c2[nH]c(-c3ccccn3)nc21`, 13 µM; under `O=C1C=C(Nc2ccc(I)cc2)C(=O)c2[nH]c(-c3ccccn3)nc21`, 20 µM.
Compound `Cc1nc2c([nH]1)C(=O)/C(=N/c1ccc(F)cc1F)C(Cl)=C2O` had an IC50 of 1.2 µM.
On the same count and under the same terms, under `Cc1ccc(NC2=C(Cl)C(=O)c3nc[nH]c3C2=O)cc1` stands 1.4 µM.
With `O=C1C(Cl)=C(Nc2ccc(C(F)(F)F)cc2)C(=O)c2[nH]cnc21`, the half-maximal inhibitory concentration (IC50) came to 2.5 µM and the pIC50 was 5.6.
`O=C1C(Cl)=C(Nc2ccc(C(F)(F)F)cc2)C(=O)c2[nH]c(C(F)(F)F)nc21` came in with a concentration for half-maximal inhibition (IC50) of 20 µM.
Same read-out and setting: as for `Cc1ccc(NC2=C(Cl)C(=O)c3nc(C)[nH]c3C2=O)cc1`, the figure is 0.8 µM.
In turn, `Cc1nc2c([nH]1)C(=O)/C(=N/c1ccc(Cl)cc1)C(Cl)=C2O` returned an IC50 of 2.8 µM and a pIC50 of 5.55.
In the same order, the values of `COc1ccc(NC2=C(Cl)C(=O)c3nc(-c4ccncc4)[nH]c3C2=O)cc1` are 50 µM and 4.3.
`O=C1C(Cl)=C(Nc2ccc(F)cc2)C(=O)c2[nH]c(-c3cccnc3)nc21` gave an IC50 of 21 µM.
The same measure, in the same setting: under `O=C1C(Cl)=C(Nc2ccc(F)c(F)c2)C(=O)c2[nH]cnc21` stands 1.1 µM; under `Cc1nc2c([nH]1)C(=O)/C(=N/c1ccc(Cl)cc1Cl)C(Cl)=C2O`, 0.8 µM; under `O=C1C(Br)=C(Nc2ccc(C(F)(F)F)cc2)C(=O)c2[nH]cnc21`, 3.1 µM.
The compound `Cc1nc2c([nH]1)C(=O)/C(=N/c1cccc(Cl)c1Cl)C(Cl)=C2O` returned an IC50 of 0.6 µM.
On the same count and under the same terms, as for `Cc1nc2c([nH]1)C(=O)/C(=N/c1ccc(C(F)(F)F)cc1)C(Cl)=C2O`, the figure is 0.6 µM; as for `Cc1cccc(NC2=C(Cl)C(=O)c3nc(-c4ccncc4)[nH]c3C2=O)c1`, 60 µM; as for `O=C1C=C(Nc2ccc(OC(F)(F)F)cc2)C(=O)c2[nH]c(-c3ccccn3)nc21`, 20 µM.
The compound `O=C1C(Cl)=C(Nc2cccc(Cl)c2)C(=O)c2[nH]c(-c3ccccn3)nc21` showed a half-maximal inhibitory concentration (IC50) of 3.5 µM.
On to `Cc1ccc(NC2=C(Cl)C(=O)c3nc(-c4cccnc4)[nH]c3C2=O)cc1`, for which the half-maximal inhibitory concentration (IC50) came out at 45 µM and the negative-log IC50 (pIC50) stood at 4.35.
`O=C1C(Cl)=C(Nc2cccc(F)c2)C(=O)c2[nH]c(-c3ccncc3)nc21` showed a 50% inhibitory concentration (IC50) of 19 µM.
Compound `O=C1C(Cl)=C(Nc2cccc(Br)c2)C(=O)c2[nH]c(-c3ccncc3)nc21` returned a concentration for half-maximal inhibition (IC50) of 20 µM and a pIC50 of 4.7.
`CCOc1ccc(NC2=C(Cl)C(=O)c3nc(-c4cccnc4)[nH]c3C2=O)cc1` came in with an IC50 of 42 µM.
As to `O=C1C(Cl)=C(Nc2ccc(OC(F)(F)F)cc2)C(=O)c2nc(-c3ccccn3)c(-c3ccccn3)nc21`, half-maximal inhibition (IC50) was put at 1 µM.
Same read-out and setting: under `O=C1C(Cl)=C(Nc2ccc(F)cc2F)C(=O)c2[nH]cnc21` stands 2.7 µM.
`Cc1nc2c(nc1C)C(=O)C(Nc1ccc(F)cc1)=CC2=O` had a half-maximal inhibitory concentration (IC50) of 3.1 µM and a pIC50 of 5.51.
The compound `Cc1nc2c(nc1C)C(=O)C(Nc1ccc(Cl)cc1)=CC2=O` yielded a half-maximal inhibitory concentration (IC50) of 3.3 µM.
The same measure, in the same setting: as for `Cc1nc2c(nc1C)C(=O)C(Nc1ccc(Br)cc1)=CC2=O`, the figure is 1.1 µM; as for `O=C1C(Cl)=C(Nc2ccc(Br)cc2)C(=O)c2[nH]cnc21`, 2 µM.
`O=C1C(Cl)=C(Nc2ccc(Cl)cc2)C(=O)c2nc(-c3ccccn3)c(-c3ccccn3)nc21`: half-maximal inhibition (IC50) was put at 1.5 µM and the pIC50 is reported as 5.82.
For the compound `O=C1C(Cl)=C(Nc2ccc(O)cc2)C(=O)c2nc(-c3ccccn3)c(-c3ccccn3)nc21`, inhibition was half-maximal at 5.5 µM (IC50) and the negative-log IC50 (pIC50) was 5.26.
For `Cc1nc2c([nH]1)C(=O)C(Nc1ccc(OC(F)(F)F)cc1)=C(Cl)C2=O`, the IC50 was found to be 3 µM.
In turn, `O=C1C(Cl)=C(Nc2cc(F)c(F)c(F)c2)C(=O)c2nc(-c3ccccn3)c(-c3ccccn3)nc21` gave a half-inhibitory concentration (IC50) of 1.2 µM.
Same read-out and setting: under `N#Cc1ccc(NC2=C(Cl)C(=O)c3nc[nH]c3C2=O)cc1` stands 2.7 µM; under `Cc1nc2c(nc1C)C(=O)C(Nc1cc(F)cc(F)c1)=CC2=O`, 4.5 µM; under `O=C1C(Cl)=C(Nc2ccccc2)C(=O)c2nc(-c3ccccn3)c(-c3ccccn3)nc21`, 3.1 µM.
On the same count and under the same terms, under `Cc1nc2c(nc1C)C(=O)C(Nc1ccc(Cl)c(Cl)c1)=CC2=O` stands 3.8 µM.
Still for that read-out and setting: as for `O=C1C(Cl)=C(Nc2ccc(F)cc2)C(=O)c2nc(-c3ccccn3)c(-c3ccccn3)nc21`, the figure is 1 µM.
`O=C1C(Br)=C(Nc2cccc(Br)c2)C(=O)c2[nH]cnc21`: the IC50 was determined as 5.3 µM.
On the same count and under the same terms, as for `O=C1C(Cl)=C(Nc2ccc(OC(F)(F)F)cc2)C(=O)c2[nH]cnc21`, the figure is 2.5 µM; as for `O=C1C(Cl)=C(Nc2cccc(Br)c2)C(=O)c2[nH]c(-c3ccccn3)nc21`, 20 µM.
Same read-out and setting: as for `CCOc1ccc(NC2=C(Cl)C(=O)c3nc(-c4ccncc4)[nH]c3C2=O)cc1`, the figure is 75 µM; as for `CCOc1ccc(NC2=CC(=O)c3nc(C)c(C)nc3C2=O)cc1`, 1.5 µM.
The same measure, in the same setting: as for `O=C1C(Br)=C(Nc2cccc(C(F)(F)F)c2)C(=O)c2[nH]cnc21`, the figure is 3 µM.
`CCc1ccc(NC2=C(Cl)C(=O)c3nc(C)[nH]c3C2=O)cc1` gave a concentration for half-maximal inhibition (IC50) of 3 µM and a pIC50 of 5.52.
As for `O=C1C(Cl)=C(Nc2ccccc2F)C(=O)c2[nH]cnc21`, half-maximal inhibition (IC50) required 1.7 µM and the negative logarithm of the IC50 (pIC50) worked out at 5.77.
Take `O=C1C(Cl)=C(Nc2cccc(Cl)c2)C(=O)c2[nH]c(-c3ccncc3)nc21`: the IC50 is 31 µM.
The same measure, in the same setting: as for `O=C1C(Cl)=C(Nc2ccc(Cl)c(Cl)c2)C(=O)c2[nH]c(-c3ccncc3)nc21`, the figure is 13 µM.
Same read-out and setting: under `O=C1C(Cl)=C(Nc2ccc(Cl)c(Cl)c2)C(=O)c2nc(-c3ccccn3)c(-c3ccccn3)nc21` stands 1 µM.
In the case of `O=C1C(Cl)=C(Nc2ccc(Cl)c(F)c2)C(=O)c2[nH]c(-c3ccncc3)nc21`, the IC50 was found to be 25 µM and the negative logarithm of the IC50 (pIC50) is given as 4.6.
Regarding `COc1ccc(NC2=C(Cl)C(=O)c3nc(-c4ccccn4)c(-c4ccccn4)nc3C2=O)cc1`, the IC50 stood at 3.5 µM and the pIC50 worked out at 5.46.
`O=C1C(Br)=C(Nc2cccc(Cl)c2)C(=O)c2[nH]cnc21`: the midpoint of inhibition, the IC50, lay at 3 µM.
On the same count and under the same terms, as for `O=C1C(Cl)=C(Nc2ccc(Br)cc2)C(=O)c2[nH]c(-c3ccncc3)nc21`, the figure is 60 µM.
Still for that read-out and setting: as for `O=C1C(Cl)=C(Nc2ccc(Cl)cc2)C(=O)c2[nH]c(-c3cccnc3)nc21`, the figure is 20 µM; as for `O=C1C(Cl)=C(Nc2ccc(Br)cc2)C(=O)c2[nH]c(-c3ccccn3)nc21`, 6.5 µM; as for `O=C1C(Cl)=C(Nc2ccc(Cl)cc2)C(=O)c2[nH]c(-c3ccccn3)nc21`, 12 µM.
Still for that read-out and setting: under `CCOc1ccc(NC2=CC(=O)c3nc(-c4ccccn4)[nH]c3C2=O)cc1` stands 6.5 µM.
